According to patent US8722659B2, “Quinazolinedione derivatives, preparation thereof and various therapeutic uses thereof” (Sanofi, priority 2009, dated 2014):

Experiments:
Human PDE7 = molecular target: T1, Human PDE7 (Homo sapiens, UniProt Q13946); assay: PDE7 enzymatic test ([3H]-cAMP hydrolysis, TLC on PEI cellulose); format: biochemical; settings: human PDE7 partially purified from HUT-78; cAMP concentration about 4 times the Km; 10 μM rolipram present
T1 construct: Human PDE7 was partially purified from the cell line HUT-78; endogenous in cells; host or cells: HUT-78 (human T-cell line), partially purified enzyme preparation
Description: (§1) The capacity of the compounds of formula (I) to inhibit PDE7 is measured by means of an enzymatic test based on separating radioactive cAMP (substrate of PDE7) from radioactive 5′-AMP (product of the enzymatic reaction) by thin-layer chromatography on polyethyleneimine (PEI) cellulose, after stopping the enzymatic reaction. The 5′-AMP is quantitatively extracted from the PEI cellulose and its radioactivity is measured using a liquid scintillation counter.
The inhibitory activity of the compounds of formula (I) on PDE7 is represented by the inhibition constant IC50, defined as the concentration of test compound (inhibitor) in the trial that can reduce the enzymatic activity of PDE7 by 50%. The lower the IC50 values, the greater the inhibitory power of the compounds.
Human PDE7 was partially purified from the cell line HUT-78 by following a method similar to that described by Bloom and Beavo (Proc. Natl. Acad. Sci. USA, (1996) 93, 14188-14192). The enzyme preparation obtained is stored at −80° C. in a buffer containing 20 mM of Tris-HCl (pH 7.0), 5 mM of MgCl2, 4 mM of EDTA, 1 mM of dithiothreitol and 20% glycerol. […] The Michaelis constant (Km) of PDE7 for cAMP, measured using the radiochemical test described hereinbelow, is 21 nM.
The compounds of formula (I) to be tested as PDE7 inhibitors are dissolved in DMSO to a concentration of 10 mM. These solutions are then serially diluted in DMSO to obtain solutions of desired concentrations. These solutions are then diluted 20-fold in the test buffer to give solutions containing 5% DMSO. These solutions are finally diluted 5-fold in the enzymatic test.
The test is performed in 1.5-ml Eppendorf tubes containing 40 mM of Tris-HCl (pH 7.5), 15 mM of MgCl2, 1 mM of EGTA, 0.5 mg/ml of bovine serum albumin, 0.25 μCi of [^3H]-cAMP (corresponding to a cAMP concentration of between 60 and 100 nM), 10 μM of rolipram and PDE7 in a final volume of 100 μl. The test is performed in the absence (control sample) or in the presence (treated sample) of compounds tested as PDE7 inhibitors. The final concentration of DMSO in the test is […]. The reaction is initiated by adding enzyme and the samples are maintained at room temperature for 30 minutes. The enzymatic dilution is adjusted so as to obtain a degree of conversion of 10% to 15%. The enzymatic reaction is stopped by immersing the stoppered Eppendorf tubes in a water bath at 100° C. for 3 minutes. Blanks (reaction stopped immediately after adding the enzyme) are included in each experiment. The samples are then centrifuged at 10 000×g for 1 minute and a 10 μl aliquot portion of the supernatant is deposited 2 cm from the bottom edge of a sheet of PEI cellulose onto which 10 μg of cAMP and 10 μg of 5′-AMP have previously been deposited. To facilitate the migration and the subsequent cutting of the PEI cellulose strips containing the 5′-AMP, 18 migration paths 1 cm wide are delimited per plate by scraping the cellulose with a spatula over a width of 1 mm. The plates are developed over their entire length with a 0.30 M solution of LiCl in water by ascending chromatography. The 5′-AMP (Rf=0.20) and the cAMP (Rf=0.47) are visualized under UV light at 254 nm. The PEI cellulose bands containing the 5′-AMP are cut out and the nucleotide is extracted quantitatively into counting flasks with 2 ml of a solution containing 16 M of formic acid and 2 M of ammonium formate in water (rotary stirring for 15 minutes). After adding 10 ml of scintillation liquid (OptiPhase HiSafe 3 from Perkin-Elmer/Wallac), the radioactivity is counted using a liquid scintillation counter (Perkin-Elmer/Wallac model 1414). Each test is performed in duplicate. The radioactivity specifically associated with the 5′-AMP formed in the enzymatic reaction is obtained by subtracting the mean value of the blanks from the mean value of the controls (or of the treated samples). […]

CLL-PBMCs = settings: PBMC of chronic lymphocytic leukaemia patients; cited from earlier work
[1] = test system: PBMCs of normal individuals; settings: cited from earlier work
PDE8 = PDE8 enzymatic test equivalent to that described for PDE7; format: biochemical; settings: at 0.1 μM
Description: as §1
The test is performed in 1.5-ml Eppendorf tubes containing 40 mM of Tris-HCl (pH 7.5), 15 mM of MgCl2, 1 mM of EGTA, 0.5 mg/ml of bovine serum albumin, 0.25 μCi of [^3H]-cAMP (corresponding to a cAMP concentration of between 60 and 100 nM), 10 μM of rolipram and PDE7 in a final volume of 100 μl. The test is performed in the absence (control sample) or in the presence (treated sample) of compounds tested as PDE7 inhibitors. The final concentration of DMSO in the test is 2%. […] The PEI cellulose bands containing the 5′-AMP are cut out and the nucleotide is extracted quantitatively into counting flasks with 2 ml of a solution containing 16 M of formic acid and 2 M of ammonium formate in water (rotary stirring for 15 minutes). After adding 10 ml of scintillation liquid (OptiPhase HiSafe 3 from Perkin-Elmer/Wallac), the radioactivity is counted using a liquid scintillation counter (Perkin-Elmer/Wallac model 1414). […]

T1 sequence (Q13946 whole entry): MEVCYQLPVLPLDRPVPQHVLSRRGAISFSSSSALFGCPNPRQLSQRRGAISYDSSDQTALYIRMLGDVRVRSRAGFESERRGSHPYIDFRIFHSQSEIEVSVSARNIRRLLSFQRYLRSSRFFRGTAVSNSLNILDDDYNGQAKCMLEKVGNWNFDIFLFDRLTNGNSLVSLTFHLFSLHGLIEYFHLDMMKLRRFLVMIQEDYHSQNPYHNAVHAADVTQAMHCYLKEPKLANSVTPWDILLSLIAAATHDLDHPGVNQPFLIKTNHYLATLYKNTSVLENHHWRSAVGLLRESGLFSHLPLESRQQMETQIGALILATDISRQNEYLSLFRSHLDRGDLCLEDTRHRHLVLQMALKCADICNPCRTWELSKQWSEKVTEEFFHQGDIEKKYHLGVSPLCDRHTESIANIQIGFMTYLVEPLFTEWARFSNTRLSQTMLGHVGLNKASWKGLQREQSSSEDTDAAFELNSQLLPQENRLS

Compound | IC50 (Human PDE7) [nM] | also measured
COc1ccc(Cn2c(=O)c3cc(OCC#N)ccc3n(C3CCOCC3)c2=O)cn1 [Compound 9, ({3-[(6-methoxypyridin-3-yl)methyl]-2,4-dioxo-1-(tetrahydro-2H-pyran-4-yl)-1,2,3,4-tetrahydroquinazolin-6-yl}oxy)acetonitrile] | 16 | –
Cc1ccc([N+](=O)[O-])cc1S(=O)(=O)N(C)C [BRL-50481] | – | apoptosis of CLL-PBMCs (CLL-PBMCs): induces dose-dependent apoptosis; effect on the PBMCs of normal individuals [1]: no effect
COc1ccc(Cn2c(=O)c3cc(OCC#N)ccc3n(C3CC[S+]([O-])CC3)c2=O)cc1OC (single isomer, unassigned; isomer 1) [Compound 17, {[3-(3,4-dimethoxybenzyl)-1-(1-oxidotetrahydro-2H-thiopyran-4-yl)-2,4-dioxo-1,2,3,4-tetrahydroquinazolin-6-yl]oxy}acetonitrile (isomer 1)] | 6.1 | –
COc1cc(Cn2c(=O)c3cc(OC(CF)CF)c(F)cc3n(C3CCOCC3)c2=O)ccc1OCc1ccccc1 [Compound 64, 3-[4-(benzyloxy)-3-methoxybenzyl]-6-[(1,3-difluoropropan-2-yl)oxy]-7-fluoro-1-(tetrahydro-2H-pyran-4-yl)quinazoline-2,4(1H,3H)-dione] | – | inhibition of PDE8 (PDE8): 59%

Second part, led by results:

IC50 (Human PDE7) [nM] | Compound | also measured
61 | COc1ccc(Cn2c(=O)c3cc(CO)ccc3n(C3CCOCC3)c2=O)cc1OC [Compound 45, 3-(3,4-dimethoxybenzyl)-6-(hydroxymethyl)-1-(tetrahydro-2H-pyran-4-yl)-quinazoline-2,4(1H,3H)-dione] | –
12 | COc1ccc(Cn2c(=O)c3cc(CF)ccc3n(C3CCOCC3)c2=O)cc1OC [Compound 60, 3-(3,4-dimethoxybenzyl)-6-(fluoromethyl)-1-(tetrahydro-2H-pyran-4-yl)-quinazoline-2,4(1H,3H)-dione] | –
5.5 | COc1ccc(Cn2c(=O)c3cc(OCC#N)ccc3n(C3CCSCC3)c2=O)cc1OC [Compound 11, {[3-(3,4-dimethoxybenzyl)-2,4-dioxo-1-(tetrahydro-2H-thiopyran-4-yl)-1,2,3,4-tetrahydroquinazolin-6-yl]oxy}acetonitrile] | –
230 | COc1ccc(Cn2c(=O)c3cc(OCC#N)ccc3n(C3CCS(=O)(=O)CC3)c2=O)cc1OC [Compound 14, {[3-(3,4-dimethoxybenzyl)-1-(1,1-dioxidotetrahydro-2H-thiopyran-4-yl)-2,4-dioxo-1,2,3,4-tetrahydroquinazolin-6-yl]oxy}acetonitrile] | –
8.9 | COc1ccc(Cn2c(=O)c3cc(OCC#N)ccc3n(C3CCOCC3)c2=O)cc1OC [Compound 2, {[3-(3,4-dimethoxybenzyl)-2,4-dioxo-1-(tetrahydro-2H-pyran-4-yl)-1,2,3,4-tetrahydroquinazolin-6-yl]oxy}acetonitrile] | –
